Measurements as given in patent publication US11753407B2, “Compounds for treating spinal muscular atrophy” (PTC Therapeutics, Inc., priority 2012, dated 2023).

Columns and labels:
[1] = tested on: Smn protein in human motor neurons derived from SMA iPS cells; test: Smn protein assay in human motor neurons; assay type: cell-based; conditions: 72 hours, increasing concentrations (FIG. 10)
Protocol: Smn immunofluorescent confocal microscopy is used to quantify the level of Smn protein in human motor neurons treated with test compounds.
Protocol. Human motor neurons derived from SMA iPS cells (Ebert et al., Nature, 2009, […]; and, Rubin et al., BMC Biology, 2011, 9:42) are treated with test compound at various concentrations for 72 hours. The level of Smn protein in the cell nucleus is quantified using Smn immunostaining and confocal fluorescence microscopy essentially as described in Makhortova et al., Nature Chemical Biology, 2011, 7:544. The level of Smn protein in compound-treated samples is normalized to that in vehicle-treated samples and plotted as a function of the compound concentration.

[2] = tested on: SMN2 minigene mRNA (SMN2-A minigene) in HEK293H cells; test: SMN2 minigene mRNA splicing RT-qPCR assay in cultured cells; assay type: cell-based, human; conditions: for SMN2 minigene FL mRNA: HEK293H cells with SMN2 minigene, rising concentrations, 24 hr, relative to vehicle (FIG. 3); for EC (1.5-fold increase): Homo sapiens, HEK293-H, concentration increasing full length SMN2 mRNA 1.5-fold relative to vehicle-treated cells, HEK293H cells with SMN2-A minigene, 24 hours, 7-point concentration data, read-out: EC1.5x for production of full length SMN2 mRNA; for exon 7 inclusion: SMN2 minigene, relative to untreated cells (FIG. 3)
In short: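 Cells are seeded, left to attach 4-6 h, then dosed with test compound across seven concentrations and incubated 24 h. Lysates undergo RT-qPCR with primers/probe specific to the exon 7-containing minigene transcript, co-amplified with GAPDH. Fold change over vehicle is calculated, and EC1.5× marks the 1.5-fold point.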

| SMILES | Smn protein in the nucleus [1] | SMN2 minigene FL mRNA [2] | EC (1.5-fold increase) [2] [µM] | exon 7 inclusion [2] |
| --- | --- | --- | --- | --- |
| COc1ccc(-c2cc(=O)n3cc(N4CCNCC4)ccc3n2)cc1OC [Cpd 6, 2-(3,4-dimethoxyphenyl)-7-(piperazin-1-yl)-4H-pyrido[1,2-a]pyrimidin-4-one] | progressively more Smn protein in the nucleus | increased SMN2 minigene FL mRNA at low concentrations | < 0.1 | fully restored exon 7 inclusion |
| Cc1cn2nc(-c3cc(=O)n4cc(N5CCN(C)CC5)ccc4n3)cc2c(C)n1 [Cpd 170, 2-(4,6-dimethylpyrazolo[1,5-a]pyrazin-2-yl)-7-(4-methylpiperazin-1-yl)-4H-pyrido[1,2-a]pyrimidin-4-one] | – | increased SMN2 minigene FL mRNA at low concentrations | < 0.1 | fully restored exon 7 inclusion |
